Tested on: T1, B. licheniformis DMN6 trypsin (arginine-specific alkaline trypsin)
T1 construct: gene BLDMN6; native secreted enzyme purified from DMN6 culture supernatant (DEAE, Superdex 75); 44 kDa by SDS-PAGE
Assay: spectrophotometric hydrolysis at […] nm, Lineweaver-Burk
Type: biochemical, Bacillus licheniformis
Conditions: 25 °C, 50 mM Tris-HCl pH 9.0, 0.1-1.5 mM BAEE

- Km: 880 µM
Compound: CCOC(=O)[C@H](CCCNC(=N)N)NC(=O)c1ccccc1 [BAEE]

From paper PMC4691143, “Biochemical Characterization of An Arginine-Specific Alkaline Trypsin from Bacillus licheniformis” (International Journal of Molecular Sciences, 2015)
